Activity calls are given as the source filed them.
Columns and labels:
[1] = HeLa cell cytotoxicity, dose response, cytotoxicity control, CellTiter-Glo luminescence, dry powder, set 2 (AID 720593); format: functional, cell-based
[2] = HepG2 hepatoma cell cytotoxicity, dose response, cytotoxicity control, CellTiter-Glo luminescence, dry powder, set 3 (AID 720594); format: functional, cell-based
[3] = HEK293T cell cytotoxicity, dose response, cytotoxicity control, CellTiter-Glo luminescence, dry powder, set 2 (AID 720595); format: functional, cell-based; conditions: HEK293
[4] = A549 cell cytotoxicity, dose response, cytotoxicity control, 24 h, CellTiter-Glo luminescence, cherry-picks (AID 1053115); format: functional, cell-based; conditions: A549, 24 h
[5] = P. falciparum Dd2 growth inhibitors, dose response, SYBR Green, cherry-picked samples (AID 1159567); format: functional, cell-based
[6] = HeLa 2N DNA content increase, dose response, cell-based, IC50 (AID 1117349); format: functional
[7] = HeLa 4N DNA content increase, dose response, cell-based, IC50 (AID 1117351); format: functional
[8] = MITF: Counter assay: A375 proliferation Measured in Cell-Based System Using Plate Reader - 2084-03_Inhibitor_Dose_DryPowder_Activity_Set8.; format: functional; conditions: A-375
[9] = MITF Orthogonal Assay: SK-MEL-5 CTG Assay Measured in Cell-Based System Using Plate Reader - 2084-02_Inhibitor_Dose_DryPowder_Activity_Set7.; format: functional
[10] = TRPM1 promoter luciferase reporter signal decrease, dose response, MITF inhibitor project, cell-based, SK-MEL-5, dry powder, set 8 (AID 624430); format: functional
[11] = A549 cell cytotoxicity, dose response, cytotoxicity control, plate reader, dry powder, set 6 (AID 743312); format: functional, cell-based
cells [12] = conditions: HEK293;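 also: cells exposed to compound for 48 hours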
[13] = P. falciparum Dd2 growth inhibitors, dose response, SYBR Green, dry powder samples, set 4 (AID 1159572); format: functional, cell-based
Transthyretin = Transthyretin (Homo sapiens, UniProt P02766); assay: Luminescence-based cell-based high throughput dose response assay to identify activators of Transthyretin (TTR) transcription.; format: functional
[14] = AlphaScreen signal interference by compounds, dose response, artefact control for ARNT/TACC3 disruptor project, biochemical, dual-tagged ARNT, dry powder (AID 720564)
[15] = Shn3 3'UTR reporter inhibitors, dose response, cell-based, Clone20 osteoblasts, firefly luciferase, cherry-picked (AID 624132); format: functional;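 also: firefly luciferase luminescence from reporter carrying the Shn3 3'UTR in osteoblasts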
[16] = control 3'UTR Renilla luciferase suppression, dose response, counter-screen for Shn3 inhibitor project, cell-based, Clone20-Shn3RL, cherry-picked (AID 624133); format: functional
[17] = HepG2 cell cytotoxicity, dose response, cytotoxicity control for Shn3 inhibitor project, CellTiter-Glo, cherry-picked (AID 624134); format: functional, cell-based
[18] = reduction of Shn3 3'UTR firefly luciferase signal, dose response, Schnurri-3 inhibitor project, cell-based, Clone20 osteoblasts, cherry-pick, set 2 (AID 720490); format: functional;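 also: actives lower the luminescence signal as inhibitors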
[19] = A2780 ovarian cancer cell cytotoxicity, dose response, cytotoxicity control, plate reader, dry powder samples (AID 743046); format: functional, cell-based
Paired box protein Pax-8 = Paired box protein Pax-8 (Homo sapiens, UniProt Q06710); assay: inhibitors of PAX8-driven TPO luciferase reporter, dose response, RMG-I cells, cherry-pick (AID 687027); format: functional, cell-based;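 also: luciferase reporter driven by Pax8 target thyroperoxidase promoter measured by SteadyGlo luminescence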
[20] = cytotoxicity in OVCAR8 ovarian cancer cells, dose response, PAX8 project, cell-based, plate reader, dry powder samples (AID 743197); format: functional; conditions: OVCAR-8
[21] = IOSE-T80 ovarian epithelial cell cytotoxicity, dose response, cytotoxicity control for PAX8 inhibitor project, plate reader, dry powder samples (AID 743045); format: functional, cell-based
[22] = IGROV1 ovarian cancer cell cytotoxicity, dose response, PAX8 inhibitor project, plate reader, dry powder samples (AID 743043); format: functional, cell-based; conditions: IGROV-1
[23] = NIH:OVCAR-3 ovarian cancer cell cytotoxicity, dose response, PAX8 inhibitor project, plate reader, dry powder samples (AID 743044); format: functional, cell-based
cells [24] = conditions: HEK293; remark: listed apart in the source;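 also: cells exposed to compound for 48 hours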
cells [25] = assay: cells
[26] = biological target: G-protein coupled receptor 183 (Homo sapiens, UniProt P32249); assay: SAR confirmation of small molecule antagonists of the EBI2 receptor via a luminescent beta-arrestin assa.; format: functional
[27] = THP-1 cell cytotoxicity, dose response, cytotoxicity control for Vif-APOBEC3G degradation inhibitor project, THP-1 cells (AID 1117359); format: functional; conditions: Human immunodeficiency virus 1, THP-1
[28] = cytotoxicity in A549 cells, dose response, cytotoxicity control, cell-based, CellTiter-Glo luminescence, cherry-pick (AID 743484); format: functional
[29] = cytotoxicity in HepG2 cells, dose response, cytotoxicity control, cell-based, CellTiter-Glo luminescence, cherry-pick, set 4 (AID 743480); format: functional
[30] = M. tuberculosis H37Rv growth inhibitors, H37Rv strain (AID 1626); format: functional
[31] = Artemis endonuclease inhibitor potency, dose response, biochemical, fluorescence intensity (AID 720701); format: functional;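 also: Artemis endonuclease enzyme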
Cryptococcus neoformans = assay: PubChem AID 686997; format: functional, organism-based
HEK293 = assay: HEK293T cell cytotoxicity, dose response, cytotoxicity control, ATP luminescence, cherry-pick samples (AID 687005); format: functional, cell-based; conditions: Homo sapiens;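 also: cells exposed to compound for 48 hours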
[32] = HEK293 Cytotoxicity Assay Measured in Cell-Based System Using Plate Reader - 7071-01_Inhibitor_Dose_CherryPick_Activity_Set2.; format: functional
[33] = biological target: NAD-dependent protein deacylase sirtuin-5, mitochondrial (Homo sapiens, UniProt Q9NXA8); assay: SIRT5 desuccinylase inhibitors, dose response, biochemical, fluorescence imaging, cherry-pick, set 5 (AID 720591);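 also: desuccinylation of succinyl peptide AMC substrate read as fluorescence after trypsin release; potency of inhibitors that lower fluorescence and may act on trypsin instead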
[34] = HepG2 cell cytotoxicity, dose response, cytotoxicity control, ATP luminescence, cherry-pick, activator set 2 (AID 1053143); format: functional, cell-based
[35] = biological target: T1, Oxysterols receptor LXR-beta (Homo sapiens, UniProt P55055); assay: LXR agonists, Gal4 luciferase reporter, dose response, counter-screen for ssDAF-12 agonist project, cell-based, luminescence, HEK293, S. stercoralis campaign (AID 720737); format: functional; conditions: read-out: IC50 (the source's name)
T1 sequence (P55055 whole entry): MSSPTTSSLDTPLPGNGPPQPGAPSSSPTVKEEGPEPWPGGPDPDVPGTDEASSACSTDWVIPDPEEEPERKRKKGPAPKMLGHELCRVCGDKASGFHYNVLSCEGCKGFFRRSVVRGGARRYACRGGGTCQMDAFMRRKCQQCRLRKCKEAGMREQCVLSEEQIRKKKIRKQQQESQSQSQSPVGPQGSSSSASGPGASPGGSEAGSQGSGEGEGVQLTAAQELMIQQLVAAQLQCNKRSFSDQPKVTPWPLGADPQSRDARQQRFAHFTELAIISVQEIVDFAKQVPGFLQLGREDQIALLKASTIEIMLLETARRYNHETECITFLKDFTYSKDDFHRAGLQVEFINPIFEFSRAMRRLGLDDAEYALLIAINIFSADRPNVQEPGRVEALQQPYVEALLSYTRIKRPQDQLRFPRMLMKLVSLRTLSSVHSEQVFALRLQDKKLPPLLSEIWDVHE

cells [36] = assay: cells; remark: listed apart in the source
[37] = biological target: T1, Oxysterols receptor LXR-beta; format: functional, cell-based
[38] = Luminescence-based cell-based high throughput dose response assay to identify activators of the DAF-12 from the parasite S. stercoralis (ssDAF-12).; format: functional
[39] = Late stage assay provider results from the probe development effort to identify inhibitors of the Plasmodium falciparum M18 Aspartyl Aminopeptidase (M18AAP): radiolabel-based cell-based dose response assay to identify compounds that inhibit P. falciparum growth in RBCs, Set 2..; format: functional

Paired box protein Pax-8, sequence (Q06710 whole entry): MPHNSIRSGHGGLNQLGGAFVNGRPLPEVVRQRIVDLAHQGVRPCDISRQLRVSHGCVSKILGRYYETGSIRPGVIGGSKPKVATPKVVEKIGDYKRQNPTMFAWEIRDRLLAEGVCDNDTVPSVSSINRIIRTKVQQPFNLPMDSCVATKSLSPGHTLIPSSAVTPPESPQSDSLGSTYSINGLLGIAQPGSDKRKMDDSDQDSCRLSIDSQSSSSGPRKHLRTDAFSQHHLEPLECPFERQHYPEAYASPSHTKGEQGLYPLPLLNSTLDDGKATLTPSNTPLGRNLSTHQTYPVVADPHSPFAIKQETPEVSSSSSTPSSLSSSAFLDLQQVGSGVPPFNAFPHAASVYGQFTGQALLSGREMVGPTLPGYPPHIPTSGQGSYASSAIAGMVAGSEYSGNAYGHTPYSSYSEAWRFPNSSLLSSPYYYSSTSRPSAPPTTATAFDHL
G-protein coupled receptor 183, sequence (P32249 whole entry): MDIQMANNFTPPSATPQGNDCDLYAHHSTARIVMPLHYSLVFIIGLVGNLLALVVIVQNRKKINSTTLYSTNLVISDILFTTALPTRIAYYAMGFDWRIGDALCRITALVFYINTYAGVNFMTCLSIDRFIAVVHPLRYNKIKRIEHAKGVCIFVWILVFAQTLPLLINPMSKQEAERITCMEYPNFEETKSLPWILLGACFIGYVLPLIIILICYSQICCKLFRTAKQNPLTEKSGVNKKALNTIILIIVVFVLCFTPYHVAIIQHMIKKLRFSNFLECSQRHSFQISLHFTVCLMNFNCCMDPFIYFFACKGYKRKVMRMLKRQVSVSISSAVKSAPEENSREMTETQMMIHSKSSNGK
NAD-dependent protein deacylase sirtuin-5, mitochondrial, sequence (Q9NXA8 whole entry): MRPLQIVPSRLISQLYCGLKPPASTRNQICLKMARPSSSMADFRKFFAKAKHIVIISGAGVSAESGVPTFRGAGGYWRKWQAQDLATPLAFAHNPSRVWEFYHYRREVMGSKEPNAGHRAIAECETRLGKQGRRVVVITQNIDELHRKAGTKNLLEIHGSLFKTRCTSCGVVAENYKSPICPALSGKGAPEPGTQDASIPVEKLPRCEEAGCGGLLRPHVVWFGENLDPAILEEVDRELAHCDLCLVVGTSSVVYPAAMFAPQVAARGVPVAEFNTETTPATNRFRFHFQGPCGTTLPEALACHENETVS

For `CSc1ccc(-c2nnc(NC(=O)c3ccc(S(=O)(=O)N4CCC(C)CC4)cc3)o2)cc1`, the AC50 [1] was > 52 µM (inactive), the AC50 [2] was > 52 µM (inactive) and the AC50 [3] was 9.24 µM (active).
For `OC[C@H]1Nc2ccc(-c3ccccc3)cc2[C@H]2[C@@H]1CCN2Cc1ccc(F)cc1`, the AC50 [4] was 46.4 µM (active) and the AC50 [5] was 1.25 µM (active).
In the case of `CCCCCCCCCCCCCCCC[N+](C)(C)Cc1ccccc1` [CETALKONIUM CHLORIDE], the IC50 [6] is reported as > 10 µM (inactive) and the IC50 [7] is reported as > 10 µM (inactive).
With `CN1CCN(C2=C(Nc3ccc(Br)cc3)C(=O)c3ccccc3C2=O)CC1` the AC50 [8] was 27 µM (active), the AC50 [9] was 7.8 µM (active) and the AC50 [10] was 5.56 µM (active).
In the case of `Cc1ccc(OCCn2cnc3ccccc32)c(C(C)C)c1`, the AC50 [11] is reported as 24.5 µM (active) and the AC50 (cells [12]) is reported as 39.8 µM (active).
In the case of `COc1ccc2c3c([nH]c2c1)[C@H](CO)NCC31CCN(C(=O)Nc2ccccc2F)CC1`, the AC50 [13] is reported as 1.52 µM (active).
For `Cc1cc(C(=O)N2CCc3ccccc32)n(-c2ccccc2)n1`, the EC50 (Transthyretin) was > 167 µM (inactive).
With `CC1CCN(S(=O)(=O)c2ccc(C(=O)Nc3nnc(-c4ccccc4)o3)cc2)CC1` the AC50 [2] was > 52 µM (inactive), the AC50 [3] was 2.57 µM (active) and the AC50 [14] was 86.8 µM (active).
With `Cc1ccc(CNC(=O)c2cc3c(C)nc4ccccc4c3o2)cc1` the AC50 [15] was 2.49 µM (active), the AC50 [16] was 12.2 µM (active) and the AC50 [17] was 64.3 µM (active). For the same compound, the AC50 [18] was 4.02 µM (active).
In the case of `COc1ccc(-c2ccc3c(c2)[C@@H]2[C@@H](CCN2C(=O)NC2CCCCC2)[C@@H](CO)N3C)cc1`, the AC50 [19] is reported as 292 nM (active), the AC50 (Paired box protein Pax-8) is reported as 14.5 µM (active) and the AC50 [20] is reported as 37.8 µM (active).
With `Cc1ccc(S(=O)(=O)Nc2ccc3c(c2)C(=O)N([C@H](C)CO)C[C@@H](C)[C@@H](CN(C)Cc2ccc(C(F)(F)F)cc2)OCCCC[C@@H](C)O3)cc1` the AC50 [21] was 53.7 µM (active), the AC50 [22] was 54.4 µM (active) and the AC50 (Paired box protein Pax-8) was 5.57 µM (active). The AC50 [20] was 39.6 µM (active) and the AC50 [23] was 36 µM (active).
In the case of `Cn1c2ccccc2c(=O)c2ccc(F)cc21`, the AC50 (cells [24]) is reported as > 52 µM (inactive) and the AC50 (cells [25]) is reported as 7.33 µM (active).
With `O=C(/C=C/c1ccc(Br)cc1)N1CCN(C(=O)c2ccc(C(F)(F)F)cc2)CC1` the IC50 [26] was 1.88 nM (active).
With `CCC(C)(c1nnnn1-c1c(C)cccc1C)N(N=O)c1ccccc1Cl` (configuration not stated) the CC50 [27] was > 40 µM (active).
In the case of `COc1ccc(NC(=O)c2ccc(-c3ccc([N+](=O)[O-])cc3)o2)cc1`, the AC50 [28] is reported as > 52 µM (inactive), the AC50 [29] is reported as > 52 µM (inactive) and the IC50 [30] is reported as > 100 µM (active).
For `CCCCn1/c(=N/C(=O)c2ccc3c(c2)OCO3)c(C#N)cc2c(=O)n3cccc(C)c3nc21`, the IC50 [31] was > 20 µM (inactive).
For `COC(=O)C1=C(C)N(CC(C)C)C(=S)NC1c1ccc(F)cc1` (configuration not stated), the AC50 (Cryptococcus neoformans) was > 84 µM (inactive), the AC50 (HEK293) was 40.3 µM (active) and the AC50 [32] was 40.3 µM (active).
In the case of `CCOc1ccc(CCN2C(=O)C(=O)N([C@@H](Cc3ccccc3)CN3CCC[C@@H]3CN3C(=O)C(=O)NC[C@@H]3Cc3ccc(O)cc3)C[C@@H]2Cc2ccccc2)cc1`, the AC50 [33] is reported as > 30 µM (inactive).
In the case of `Cc1nc(-c2ccc(C(=O)Nc3ccc(F)cc3)cc2)cs1`, the AC50 [34] is reported as 26 µM (active).
With `O=[N+]([O-])c1ccc2oc(-c3cccc(O)c3)nc2c1` the EC50 [35] was > 67.5 µM (inactive), the EC50 (cells [36]) was > 67.6 µM (inactive) and the EC50 [37] was > 67.6 µM (inactive). The IC50 [38] was > 67.5 µM (inactive).
For `COc1ccc(CNc2c3ccccc3nc3ccccc23)cc1OC`, the IC50 [39] was 1.05 µM (active).
